Test results reported in patent publication US20070009532A1 (priority 2005, published 2007).

Legend:
P450 isoenzyme 3A4 = P450 isoenzyme 3A4 (Homo sapiens, UniProt P08684); conditions: cited from earlier work
P-gp = molecular target: T1, P-gp (Homo sapiens, UniProt P08183); experiment: substrate for P-gp efflux / duration of reversal activity in resistant cells; type: cell-based
T1 construct: relatively long duration of reversal activity in resistant cells even after the modulator has been withdrawn; endogenous in cells
T1 sequence (P08183 whole entry): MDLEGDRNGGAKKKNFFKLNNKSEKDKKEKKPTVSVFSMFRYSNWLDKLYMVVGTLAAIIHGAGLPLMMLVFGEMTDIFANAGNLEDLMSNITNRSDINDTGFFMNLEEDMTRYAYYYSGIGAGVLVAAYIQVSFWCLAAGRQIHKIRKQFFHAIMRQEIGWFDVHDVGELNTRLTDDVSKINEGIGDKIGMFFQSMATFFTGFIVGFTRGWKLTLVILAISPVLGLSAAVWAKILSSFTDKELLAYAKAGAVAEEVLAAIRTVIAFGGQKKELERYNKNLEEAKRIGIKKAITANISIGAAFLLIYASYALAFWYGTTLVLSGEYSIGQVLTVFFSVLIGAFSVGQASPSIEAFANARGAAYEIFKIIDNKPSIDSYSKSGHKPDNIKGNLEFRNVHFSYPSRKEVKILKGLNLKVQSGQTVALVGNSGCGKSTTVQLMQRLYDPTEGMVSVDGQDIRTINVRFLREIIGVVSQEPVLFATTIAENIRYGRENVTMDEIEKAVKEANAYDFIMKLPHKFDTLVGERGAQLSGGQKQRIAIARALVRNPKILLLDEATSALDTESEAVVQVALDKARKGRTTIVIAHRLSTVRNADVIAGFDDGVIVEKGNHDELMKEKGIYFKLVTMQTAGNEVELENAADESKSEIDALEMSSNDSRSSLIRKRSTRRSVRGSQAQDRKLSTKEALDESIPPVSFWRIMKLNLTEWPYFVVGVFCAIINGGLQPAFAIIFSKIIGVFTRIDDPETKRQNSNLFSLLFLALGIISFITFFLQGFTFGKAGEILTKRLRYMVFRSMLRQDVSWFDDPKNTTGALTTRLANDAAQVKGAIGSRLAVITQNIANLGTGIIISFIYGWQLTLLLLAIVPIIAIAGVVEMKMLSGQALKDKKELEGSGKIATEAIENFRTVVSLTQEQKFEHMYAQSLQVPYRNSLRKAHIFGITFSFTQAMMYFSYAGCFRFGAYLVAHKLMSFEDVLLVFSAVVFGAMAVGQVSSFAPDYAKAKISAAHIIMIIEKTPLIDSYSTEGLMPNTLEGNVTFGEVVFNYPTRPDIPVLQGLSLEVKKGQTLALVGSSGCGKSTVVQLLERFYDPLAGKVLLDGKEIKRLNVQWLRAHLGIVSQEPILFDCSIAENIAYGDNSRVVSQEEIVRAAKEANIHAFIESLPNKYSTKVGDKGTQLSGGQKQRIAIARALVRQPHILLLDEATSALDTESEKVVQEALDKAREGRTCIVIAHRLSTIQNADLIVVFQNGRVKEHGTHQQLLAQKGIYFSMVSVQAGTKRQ

[1] = pharmacokinetic interaction with co-administered oncolytics in preclinical models; type: in vivo; conditions: several oncolytics tested in preclinical models

Chain of P450 isoenzyme 3A4 (P08684 whole entry): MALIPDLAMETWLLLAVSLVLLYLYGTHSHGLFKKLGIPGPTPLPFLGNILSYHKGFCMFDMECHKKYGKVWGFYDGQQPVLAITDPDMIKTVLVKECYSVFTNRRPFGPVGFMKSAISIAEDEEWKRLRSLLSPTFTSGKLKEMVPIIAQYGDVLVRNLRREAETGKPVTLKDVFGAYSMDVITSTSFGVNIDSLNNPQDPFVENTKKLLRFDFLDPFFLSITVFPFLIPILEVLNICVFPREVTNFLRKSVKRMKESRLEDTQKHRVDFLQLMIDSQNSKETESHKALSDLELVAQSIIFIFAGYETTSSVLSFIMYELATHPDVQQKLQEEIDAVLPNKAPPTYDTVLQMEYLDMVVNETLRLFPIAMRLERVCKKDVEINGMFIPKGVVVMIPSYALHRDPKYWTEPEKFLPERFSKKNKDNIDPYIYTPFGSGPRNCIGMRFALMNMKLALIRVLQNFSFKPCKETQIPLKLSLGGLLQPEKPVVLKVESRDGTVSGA

Structure (SMILES) | substrate for P450 isoenzyme 3A4 (P450 isoenzyme 3A4) | substrate for P-gp efflux (P-gp) | pharmacokinetic (PK) interactions with oncolytics [1]
COc1cc(C(=O)C(=O)N2CCCC[C@H]2C(=O)OC(CCCc2cccnc2)CCCc2cccnc2)cc(OC)c1OC [biricodar] | substrates for the P450 isoenzyme 3A4 | – | –
C/C=C/C[C@@H](C)C(=O)[C@H]1C(=O)N[C@@H](C(C)C)C(=O)N(C)CC(=O)N(C)[C@@H](CC(C)C)C(=O)N[C@@H](C(C)C)C(=O)N(C)[C@@H](CC(C)C)C(=O)N[C@@H](C)C(=O)N[C@H](C)C(=O)N(C)[C@@H](CC(C)C)C(=O)N(C)[C@@H](CC(C)C)C(=O)N(C)[C@@H](C(C)C)C(=O)N1C [valspodar] | substrates for the P450 isoenzyme 3A4 | – | –
O[C@@H](COc1cccc2ncccc12)CN1CCN([C@@H]2c3ccccc3[C@@H]3[C@H](c4ccccc42)C3(F)F)CC1 [zosuquidar, (2R)-anti-5-3-[4-(10,11-difluoromethanodibenzosuber-5-y1)piperazin-1-y1]-2-hydroxypropoxy)quinoline] | – | does not appear to be a substrate for P-gp efflux | minimal pharmacokinetic (PK) interactions
